Here are results for three compounds from patent US20180256673A1, “METHODS FOR TREATING FUNGAL INFECTIONS” (priority 2015, published 2018).

In assay [1] the test system is azole-resistant Candida albicans R357 strain. Nature of the assay: microbe, parasite or virus in culture. Type of assay: cell-based. The conditions noted are these: for MIC: Candida albicans.
The subject of assay [2] is C. tropicalis CTO2, MMX 7255, MMX 7525. The experiment in a line: Time-kill assay in vagina-simulative medium pH 4.0 (Table 18). Type of assay: cell-based, Candida tropicalis. Particulars: C. tropicalis CT02 (FLU S), VSM pH 4.0.
In assay [3] the test system is C. glabrata CG01, ATCC 200918, MMX 7070. The experiment in a line: Time-kill assay in vagina-simulative medium pH 4.0 (Table 17). Type of assay: cell-based, Candida glabrata. The conditions noted are these: C. glabrata CG01 (FLU S), VSM pH 4.0.
Assay [4] relates to C. parapsilosis CP02, CP01, MMX 7370. The experiment in a line: Time-kill assay in vagina-simulative medium pH 4.0 (Table 19). Type of assay: cell-based, Candida parapsilosis. Particulars: C. parapsilosis CP02 (FLU S), VSM pH 4.0.
In assay [5] the test system is C. albicans ATCC 44858, DPL001, R357. The experiment in a line: Time-kill assay in vagina-simulative medium pH 4.0 (Table 16). In kind it is cell-based, Candida albicans. The conditions noted are these: ATCC 44858 (FLU S).

Some results are limits rather than exact numbers.

Consider `CC[C@@H]([C@H](C)O)n1ncn(-c2ccc(N3CCN(c4ccc(OC[C@@H]5CO[C@@](Cn6cncn6)(c6ccc(F)cc6F)C5)cc4)CC3)cc2)c1=O` [Posaconazole], for which, in assay [1], the MIC is greater than 64 µg/mL.
With `C[C@@H](c1ncncc1F)[C@](O)(Cn1cncn1)c1ccc(F)cc1F` [Voriconazole], the “Susceptibility (CLSI)” value in assay [1] (C. albicans R357) is listed as “R”. This compound displayed an MIC in assay [1] greater than 64 µg/mL.
Take `CC(C)N1CCN(c2ccc(OCC3COC(Cn4cncn4)(c4ccc(Cl)cc4Cl)O3)cc2)CC1` (stereo not drawn) [TCZ, terconazole]: the “log-fold changes in CFU” value is on record as 2.39 log-fold in assay [2] (24 h, 2 μg/mL); 2.33 log-fold in assay [2] (24 h, 8 μg/mL); 0.00 log-fold in assay [2] (24 h, 32 μg/mL); −1.00 log-fold in assay [2] (24 h, 128 μg/mL); 2.57 log-fold in assay [2] (48 h, 2 μg/mL); 2.33 log-fold in assay [2] (48 h, 8 μg/mL). Also, the “log-fold changes in CFU” value in assay [2] (48 h, 32 μg/mL) was 0.23 log-fold; in assay [2] (48 h, 128 μg/mL) it was −1.00 log-fold; in assay [2] (72 h, 2 μg/mL) it was 2.65 log-fold; in assay [2] (72 h, 8 μg/mL) it was 2.52 log-fold; in assay [2] (72 h, 32 μg/mL), 0.27 log-fold; in assay [2] (72 h, 128 μg/mL) it was −0.94 log-fold. Also, the “log-fold changes in CFU” value in assay [3] (24 h, 2 μg/mL) was 2.43 log-fold; in assay [3] (24 h, 8 μg/mL) it was 2.43 log-fold; in assay [3] (24 h, 32 μg/mL), 2.40 log-fold; in assay [3] (24 h, 128 μg/mL), 1.79 log-fold; in assay [3] (48 h, 2 μg/mL), 2.42 log-fold; in assay [3] (48 h, 8 μg/mL) it was 2.45 log-fold. The “log-fold changes in CFU” value is 2.36 log-fold in assay [3] (48 h, 32 μg/mL); 2.35 log-fold in assay [3] (48 h, 128 μg/mL); 2.47 log-fold in assay [3] (72 h, 2 μg/mL); 2.19 log-fold in assay [3] (72 h, 8 μg/mL); 2.21 log-fold in assay [3] (72 h, 32 μg/mL); 2.30 log-fold in assay [3] (72 h, 128 μg/mL). The “log-fold changes in CFU” value in assay [4] (24 h, 2 μg/mL) is 0.21 log-fold; in assay [4] (24 h, 8 μg/mL), −0.79 log-fold; in assay [4] (24 h, 32 μg/mL) it was −0.89 log-fold; in assay [4] (24 h, 128 μg/mL) it was −0.95 log-fold; in assay [4] (48 h, 2 μg/mL) it was 1.89 log-fold; in assay [4] (48 h, 8 μg/mL), −0.64 log-fold. Further, the “log-fold changes in CFU” value in assay [4] (48 h, 32 μg/mL) is recorded as −2.48 log-fold; in assay [4] (48 h, 128 μg/mL), −2.65 log-fold; in assay [4] (72 h, 2 μg/mL) it was 2.00 log-fold; in assay [4] (72 h, 8 μg/mL) it was −0.63 log-fold; in assay [4] (72 h, 32 μg/mL) it was −2.78 log-fold; in assay [4] (72 h, 128 μg/mL) it was −2.95 log-fold. Also, the “log-fold change in CFU” value in assay [5] (24 h, 2 μg/mL) is reported as 0.33 log-fold; in assay [5] (24 h, 8 μg/mL), 0.33 log-fold; in assay [5] (24 h, 32 μg/mL) it was −1.16 log-fold; in assay [5] (24 h, 128 μg/mL), −1.41 log-fold; in assay [5] (48 h, 2 μg/mL), 2.00 log-fold; in assay [5] (48 h, 8 μg/mL), 1.38 log-fold. The “log-fold change in CFU” value in assay [5] (48 h, 32 μg/mL) is reported as −1.07 log-fold; in assay [5] (48 h, 128 μg/mL) it was −1.64 log-fold; in assay [5] (72 h, 2 μg/mL), 2.52 log-fold; in assay [5] (72 h, 8 μg/mL), 2.27 log-fold; in assay [5] (72 h, 32 μg/mL) it was −0.41 log-fold; in assay [5] (72 h, 128 μg/mL), −0.81 log-fold.
